Data as given in ChEMBL document CHEMBL3526058, “Investigating the enteroenteric recirculation of apixaban, a factor Xa inhibitor: administration of activated charcoal to bile duct-cannulated rats and dogs receiving an intravenous dose and use of drug transporter knockout rats” (Drug Metab Dispos, 2013).

Experiments:
Canis familiaris [1] = experiment: AUC (0 to infinity) in bile duct-cannulated beagle dog at 1 mg/kg, iv administered as 5 mins infusion followed by activated charcoal administration 10 to 420 mins post compound dosing; assay type: ADME, organism-based, Canis lupus familiaris; parameters: time infinity, dose 1 mg/kg, route intravenous; settings: in vivo
Rattus norvegicus [2] = experiment: Intestinal clearance in wild-type bile duct-cannulated Sprague-Dawley rat at 2 mg/kg, iv administered 0.125 hr post GF-120918 treatment; assay type: ADME, organism-based; parameters: dose 2 mg/kg, route intravenous; settings: in vivo
Rattus norvegicus [3] = experiment: Metabolism and biliary clearance in P-gp-knockout Sprague-Dawley rat at 2 mg/kg, iv; assay type: ADME, organism-based, Bile; parameters: dose 2 mg/kg, route intravenous; settings: in vivo
Rattus norvegicus [4] = experiment: Metabolism and biliary clearance in BCRP-knockout Sprague-Dawley rat at 2 mg/kg, iv; assay type: ADME, organism-based, Bile; parameters: dose 2 mg/kg, route intravenous; settings: in vivo
[5] = Drug recovery in urine of bile duct-cannulated BCRP-knockout Sprague-Dawley rat at 2 mg/kg, iv measured up to 24 hrs; assay type: ADME, organism-based; parameters: dose 2 mg/kg, route intravenous; settings: read-out: Drug recovery
[6] = AUC (0 to infinity) in wild-type 30 mins activated charcoal pre-treated bile duct-cannulated Sprague-Dawley rat at 2 mg/kg, iv followed by activated charcoal administration 5 to 180 mins post compound dosing; assay type: ADME, organism-based; parameters: time infinity, dose 2 mg/kg, route intravenous; settings: in vivo
[7] = Volume of distribution at steady state in wild-type 30 mins activated charcoal pre-treated bile duct-cannulated Sprague-Dawley rat at 2 mg/kg, iv followed by activated charcoal administration 5 to 180 mins post compound dosing; assay type: ADME, organism-based; parameters: dose 2 mg/kg, route intravenous; settings: in vivo, read-out: Vdss
Rattus norvegicus [8] = experiment: Renal clearance in BCRP-knockout Sprague-Dawley rat at 2 mg/kg, iv relative to total clearance; assay type: ADME, organism-based, Kidney; parameters: dose 2 mg/kg, route intravenous; settings: in vivo
[9] = Drug recovery in feces of beagle dog at 5 mg/kg, po measured up to 72 hrs; assay type: ADME, organism-based, Canis lupus familiaris; parameters: dose 5 mg/kg, route oral; settings: read-out: Drug recovery
[10] = Half life in BCRP-knockout Sprague-Dawley rat at 2 mg/kg, iv; assay type: ADME, organism-based; parameters: dose 2 mg/kg, route intravenous; settings: in vivo
[11] = Drug recovery in bile of bile duct-cannulated BCRP-knockout Sprague-Dawley rat at 2 mg/kg, iv measured up to 24 hrs; assay type: ADME, organism-based; parameters: dose 2 mg/kg, route intravenous; settings: read-out: Drug recovery
Rattus norvegicus [12] = experiment: Intestinal clearance in BCRP-knockout Sprague-Dawley rat at 2 mg/kg, iv; assay type: ADME, organism-based; parameters: dose 2 mg/kg, route intravenous; settings: in vivo
[13] = Drug recovery in feces of Sprague-Dawley rat at 2 mg/kg, iv measured up to 168 hrs; assay type: ADME, organism-based; parameters: dose 2 mg/kg, route intravenous; settings: read-out: Drug recovery
[14] = Volume of distribution at steady state in wild-type bile duct-cannulated Sprague-Dawley rat at 2 mg/kg, iv; assay type: ADME, organism-based; parameters: dose 2 mg/kg, route intravenous; settings: in vivo, read-out: Vdss
[15] = Drug recovery in bile of bile duct-cannulated Sprague-Dawley rat at 2 mg/kg, iv administered 1 hr post GF-120918 treatment measured up to 48 hrs; assay type: ADME, organism-based; parameters: dose 2 mg/kg, route intravenous; settings: with GF-120918, given 1 hr before the compound, read-out: Drug recovery
[16] = Cmax in wild-type bile duct-cannulated Sprague-Dawley rat at 2 mg/kg, iv administered 0.125 hr post GF-120918 treatment; assay type: ADME, organism-based; parameters: dose 2 mg/kg, route intravenous; settings: in vivo, with GF-120918
[17] = Drug recovery in bile of 30 mins activated charcoal pre-treated bile duct-cannulated Sprague-Dawley rat at 2 mg/kg, iv followed by activated charcoal administration 5 to 180 mins post compound dosing measured up to 48 hrs; assay type: ADME, organism-based; parameters: dose 2 mg/kg, route intravenous; settings: read-out: Drug recovery
[18] = Drug recovery in urine of bile duct-cannulated Sprague-Dawley rat at 2 mg/kg, iv administered 1 hr post GF-120918 treatment measured up to 48 hrs; assay type: ADME, organism-based; parameters: dose 2 mg/kg, route intravenous; settings: with GF-120918, given 1 hr before the compound, read-out: Drug recovery
Canis familiaris [19] = experiment: Intestinal clearance in bile duct-cannulated beagle dog at 1 mg/kg, iv administered as 5 mins infusion relative to total clearance; assay type: ADME, organism-based, Canis lupus familiaris; parameters: dose 1 mg/kg, route intravenous; settings: in vivo
[20] = Drug recovery in urine of beagle dog at 1 mg/kg, iv administered as 5 mins infusion measured up to 72 hrs; assay type: ADME, organism-based, Canis lupus familiaris; parameters: dose 1 mg/kg, route intravenous; settings: read-out: Drug recovery
[21] = Clearance in P-gp-knockout Sprague-Dawley rat at 2 mg/kg, iv; assay type: ADME, organism-based; parameters: dose 2 mg/kg, route intravenous; settings: in vivo
[22] = Drug recovery in bile of bile duct-cannulated P-gp-knockout Sprague-Dawley rat at 2 mg/kg, iv measured up to 24 hrs; assay type: ADME, organism-based; parameters: dose 2 mg/kg, route intravenous; settings: read-out: Drug recovery
[23] = Half life in wild-type 30 mins activated charcoal pre-treated bile duct-cannulated Sprague-Dawley rat at 2 mg/kg, iv followed by activated charcoal administration 5 to 180 mins post compound dosing; assay type: ADME, organism-based; parameters: dose 2 mg/kg, route intravenous; settings: in vivo
[24] = Half life in P-gp-knockout Sprague-Dawley rat at 2 mg/kg, iv; assay type: ADME, organism-based; parameters: dose 2 mg/kg, route intravenous; settings: in vivo
Canis familiaris [25] = experiment: Metabolism and biliary clearance in bile duct-cannulated beagle dog at 1 mg/kg, iv administered as 5 mins infusion; assay type: ADME, organism-based, Canis lupus familiaris; parameters: dose 1 mg/kg, route intravenous; settings: in vivo
[26] = Half life in wild-type bile duct-cannulated Sprague-Dawley rat at 2 mg/kg, iv; assay type: ADME, organism-based; parameters: dose 2 mg/kg, route intravenous; settings: in vivo
[27] = Renal clearance in wild-type bile duct-cannulated Sprague-Dawley rat at 2 mg/kg, iv; assay type: ADME, organism-based, Kidney; parameters: dose 2 mg/kg, route intravenous; settings: in vivo
[28] = Drug recovery in urine of beagle dog at 5 mg/kg, po measured up to 72 hrs; assay type: ADME, organism-based, Canis lupus familiaris; parameters: dose 5 mg/kg, route oral; settings: read-out: Drug recovery
Rattus norvegicus [29] = experiment: Metabolism and biliary clearance in wild-type 30 mins activated charcoal pre-treated bile duct-cannulated Sprague-Dawley rat at 2 mg/kg, iv followed by activated charcoal administration 5 to 180 mins post compound dosing; assay type: ADME, organism-based; parameters: dose 2 mg/kg, route intravenous; settings: in vivo
Rattus norvegicus [30] = experiment: Metabolism and biliary clearance in wild-type bile duct-cannulated Sprague-Dawley rat at 2 mg/kg, iv; assay type: ADME, organism-based; parameters: dose 2 mg/kg, route intravenous; settings: in vivo
[31] = Drug recovery in urine of bile duct-cannulated beagle dog at 1 mg/kg, iv administered as 5 mins infusion measured up to 72 hrs; assay type: ADME, organism-based, Canis lupus familiaris; parameters: dose 1 mg/kg, route intravenous; settings: read-out: Drug recovery
[32] = Volume of distribution at steady state in bile duct-cannulated beagle dog at 1 mg/kg, iv administered as 5 mins infusion; assay type: ADME, organism-based, Canis lupus familiaris; parameters: dose 1 mg/kg, route intravenous; settings: in vivo, read-out: Vdss
[33] = Drug recovery in feces of bile duct-cannulated Sprague-Dawley rat at 2 mg/kg, iv administered 1 hr post GF-120918 treatment measured up to 48 hrs; assay type: ADME, organism-based; parameters: dose 2 mg/kg, route intravenous; settings: with GF-120918, given 1 hr before the compound, read-out: Drug recovery
Rattus norvegicus [34] = experiment: Metabolism and biliary clearance in BCRP-knockout Sprague-Dawley rat at 2 mg/kg, iv relative to total clearance; assay type: ADME, organism-based, Bile; parameters: dose 2 mg/kg, route intravenous; settings: in vivo
Rattus norvegicus [35] = experiment: Metabolism and biliary clearance in wild-type 30 mins activated charcoal pre-treated bile duct-cannulated Sprague-Dawley rat at 2 mg/kg, iv followed by activated charcoal administration 5 to 180 mins post compound dosing relative to total clearance; assay type: ADME, organism-based; parameters: dose 2 mg/kg, route intravenous; settings: in vivo
[36] = Drug recovery in urine of bile duct-cannulated Sprague-Dawley rat at 30 mg/kg, po measured up to 48 hrs; assay type: ADME, organism-based; parameters: dose 30 mg/kg, route oral; settings: read-out: Drug recovery
[37] = Cmax in bile duct-cannulated beagle dog at 1 mg/kg, iv administered as 5 mins infusion; assay type: ADME, organism-based, Canis lupus familiaris; parameters: dose 1 mg/kg, route intravenous; settings: in vivo
Canis familiaris [38] = experiment: Clearance in bile duct-cannulated beagle dog at 1 mg/kg, iv administered as 5 mins infusion; assay type: ADME, organism-based, Canis lupus familiaris; parameters: dose 1 mg/kg, route intravenous; settings: in vivo
[39] = Drug recovery in urine of bile duct-cannulated P-gp-knockout Sprague-Dawley rat at 2 mg/kg, iv measured up to 24 hrs; assay type: ADME, organism-based; parameters: dose 2 mg/kg, route intravenous; settings: read-out: Drug recovery
[40] = Mean residence time in wild-type bile duct-cannulated Sprague-Dawley rat at 2 mg/kg, iv; assay type: ADME, organism-based; parameters: dose 2 mg/kg, route intravenous; settings: in vivo
[41] = Mean residence time in BCRP-knockout Sprague-Dawley rat at 2 mg/kg, iv; assay type: ADME, organism-based; parameters: dose 2 mg/kg, route intravenous; settings: in vivo
[42] = Half life in bile duct-cannulated beagle dog at 1 mg/kg, iv administered as 5 mins infusion followed by activated charcoal administration 10 to 420 mins post compound dosing; assay type: ADME, organism-based, Canis lupus familiaris; parameters: dose 1 mg/kg, route intravenous; settings: in vivo
[43] = Clearance in wild-type bile duct-cannulated Sprague-Dawley rat at 2 mg/kg, iv administered 0.125 hr post GF-120918 treatment; assay type: ADME, organism-based; parameters: dose 2 mg/kg, route intravenous; settings: in vivo, with GF-120918
Rattus norvegicus [44] = experiment: Intestinal clearance in P-gp-knockout Sprague-Dawley rat at 2 mg/kg, iv relative to total clearance; assay type: ADME, organism-based; parameters: dose 2 mg/kg, route intravenous; settings: in vivo
[45] = Drug recovery in bile of bile duct-cannulated beagle dog at 1 mg/kg, iv administered as 5 mins infusion measured up to 72 hrs; assay type: ADME, organism-based, Canis lupus familiaris; parameters: dose 1 mg/kg, route intravenous; settings: read-out: Drug recovery

AUC (Canis familiaris [1]): 5600 ng·h/mL
CL (Rattus norvegicus [2]): 1.7 mL/min/kg
CL (Rattus norvegicus [3]): 4.83 mL/min/kg
CL (Rattus norvegicus [4]): 4.33 mL/min/kg
dose excreted at 24 h [5]: 35.5%
AUC(0-inf) [6]: 1020 ng·h/mL
Vd [7]: 1.2 L/kg
CL (Rattus norvegicus [8]): 33%
dose excreted at 72 h [9]: 73.7%
half-life [10]: 2.1 h
dose excreted at 24 h [11]: 12.7%
CL (Rattus norvegicus [12]): 5.67 mL/min/kg
dose excreted at 168 h [13]: 41.1%
Vd [14]: 0.9 L/kg
dose excreted [15]: 14.7%
Cmax [16]: 1970 ng/mL
dose excreted [17]: 15.7%
dose excreted [18]: 50.6%
CL (Canis familiaris [19]): 43%
dose excreted [20]: 9.9%
clearance [21]: 13.3 mL/min/kg
dose excreted at 24 h [22]: 14.1%
half-life [23]: 0.8 h
half-life [24]: 1.1 h
CL (Canis familiaris [25]): 0.288 mL/min/kg
half-life [26]: 1.2 h
CL renal [27]: 11.8 mL/min/kg
dose excreted at 72 h [28]: 8.8%
CL (Rattus norvegicus [29]): 11.2 mL/min/kg
CL (Rattus norvegicus [30]): 6.5 mL/min/kg
dose excreted [31]: 13.5%
Vd [32]: 0.2 L/kg
dose excreted [33]: 13.8%
CL (Rattus norvegicus [34]): 30%
CL (Rattus norvegicus [35]): 33%
dose excreted at 48 h [36]: 10.5%
Cmax [37]: 4430 ng/mL
CL (Canis familiaris [38]): 0.667 mL/min/kg
dose excreted at 24 h [39]: 44.3%
MRT [40]: 0.6 h
MRT [41]: 1.4 h
half-life [42]: 1.8 h
clearance [43]: 11.7 mL/min/kg
CL (Rattus norvegicus [44]): 24%
dose excreted [45]: 12.4%
SMILES: COc1ccc(-n2nc(C(N)=O)c3c2[14C](=O)N(c2ccc(N4CCCCC4=O)cc2)CC3)cc1
